Assay results published in ChEMBL document CHEMBL1629508, “Synthesis and structure-activity relationships of tyrosine-based inhibitors of autotaxin (ATX)” (Bioorg Med Chem Lett, 2010).

What was measured:
Autotaxin [1] = biological target: T1, Autotaxin (Homo sapiens, UniProt Q13822); assay: Inhibition of autotoxin assessed as choline production after 60 to 180 mins using lysophosphatidylcholine as a substrate by colorimetric method
Autotaxin [2] = biological target: T1, Autotaxin; assay: Inhibition of autotoxin assessed as choline release from LPC using lysophosphatidylcholine as substrate

SMILES	Ki (Autotaxin [1])	Ki (Autotaxin [2])
CCCCCCCCCCCCCCCC(=O)N[C@@H](Cc1ccc(OCc2cc(C)c(OC)c(C)c2)cc1)[C@@H](O)CP(=O)(O)O	1.6 µM	
CCCCCCCCCCCCCCCC(=O)N[C@@H](Cc1ccc(OCc2ncc(C)c(OC)c2C)cc1)[C@@H](O)CP(=O)(O)O	1 µM	
CCCCCCCCCCCCCCCC(=O)N[C@@H](Cc1ccc(OCc2ncc(C)c(OC)c2C)cc1)[C@H](O)CP(=O)(O)O	3.9 µM	
CCCCCCCCCCCCCCCC(=O)N[C@@H](Cc1ccc(OCc2ccccc2)cc1)[C@@H](O)CP(=O)(O)O	27 µM	
CCCCCCCCCCCCCCCC(=O)N[C@@H](Cc1ccc(OCc2ccccc2)cc1)[C@H](O)CP(=O)(O)O	83 µM	
CCCCCCCCCCCCCCCC(=O)N[C@@H](Cc1ccc(OCc2ccccn2)cc1)[C@@H](O)CP(=O)(O)O	4.4 µM	
CCCCCCCCCCCCCCCC(=O)N[C@@H](Cc1ccc(OCc2ccccn2)cc1)[C@H](O)CP(=O)(O)O	11 µM	
CCCCCCCCCCCCCCCC(=O)N[C@@H](Cc1ccc(OCc2cc(OC)ccn2)cc1)[C@@H](O)CP(=O)(O)O	1.5 µM	
CCCCCCCCCCCCCCCC(=O)N[C@@H](Cc1ccc(OCc2cc(OC)ccn2)cc1)[C@H](O)CP(=O)(O)O	3.5 µM	
CCCCCCCCCCCCCCCC(=O)N[C@@H](Cc1ccc(OCc2ncc(C)cc2C)cc1)[C@@H](O)CP(=O)(O)O	3.9 µM	
CCCCCCCCCCCCCCCC(=O)N[C@@H](Cc1ccc(OCc2ncc(C)cc2C)cc1)[C@H](O)CP(=O)(O)O	399 µM	
CCCCCCCCCCCCCCCC(=O)N[C@@H](Cc1ccc(OCc2ncc(C)c(OCC)c2C)cc1)[C@@H](O)CP(=O)(O)O	4.7 µM	
CCCCCCCCCCCCCCCC(=O)N[C@@H](Cc1ccc(OCc2ncc(C)c(OC(C)C)c2C)cc1)[C@H](O)CP(=O)(O)O	11.1 µM	
CCCCCCCCCCCCCCCC(=O)N[C@@H](Cc1ccc(OCc2ncc(C)c(OCC)c2C)cc1)[C@H](O)CP(=O)(O)O	6.2 µM	
CCCCCCCCCCCCCCCC(=O)N[C@@H](Cc1ccc(OCc2ncc(C)c(OC(C)C)c2C)cc1)[C@@H](O)CP(=O)(O)O	8.8 µM	
CCCCCCCCCCCCCCCC(=O)N[C@@H](Cc1ccc(OCc2cc(OCC(F)(F)F)ccn2)cc1)[C@@H](O)CP(=O)(O)O	11.6 µM	
CCCCCCCCCCCCCCCC(=O)N[C@@H](Cc1ccc(OCc2cc(OCC(F)(F)F)ccn2)cc1)[C@H](O)CP(=O)(O)O	22.5 µM	
CCCCCCCCCCCCCCCC(=O)N[C@@H](Cc1ccc(OCc2ccc(C)cc2C)cc1)[C@@H](O)CP(=O)(O)O	1.8 µM	
CCCCCCCCCCCCCCCC(=O)N[C@@H](Cc1ccc(OCc2ccc(C)cc2C)cc1)[C@H](O)CP(=O)(O)O	4.8 µM	
CCCCCCCCCCCCCCCC(=O)N[C@@H](Cc1ccc(OCc2ccc(Cl)cc2Cl)cc1)[C@@H](O)CP(=O)(O)O	584 µM	
CCCCCCCCCCCCCCCC(=O)N[C@@H](Cc1ccc(OCc2ccc(Cl)cc2Cl)cc1)[C@H](O)CP(=O)(O)O	1060 µM	
CCCCCCCCCCCCCCCC(=O)N[C@@H](Cc1ccc(OCc2cc(C)c(OC)c(C)c2)cc1)[C@H](O)CP(=O)(O)O	5.3 µM	
CCCCCCCCCCCCCCCC(=O)N[C@@H](Cc1ccc(OCc2cc(C)cc(C)c2)cc1)[C@@H](O)CP(=O)(O)O	88.9 µM	
CCCCCCCCCCCCCCCC(=O)N[C@@H](Cc1ccc(OCc2cc(C)cc(C)c2)cc1)[C@H](O)CP(=O)(O)O	217 µM	
CCCCCCCCCCCCCCCC(=O)N[C@@H](Cc1ccc(OCc2ccc(OC)c(C)c2)cc1)[C@@H](O)CP(=O)(O)O	4.3 µM	
CCCCCCCCCCCCCCCC(=O)N[C@@H](Cc1ccc(OCc2ccc(OC)c(C)c2)cc1)[C@H](O)CP(=O)(O)O	26.5 µM	
O=C1S/C(=C\c2cccc(B(O)O)c2)C(=O)N1Cc1ccc(F)cc1		0.094 µM
O=C(O)c1cccc(/C=C2\SC(=O)N(Cc3ccc(F)cc3)C2=O)c1		0.187 µM
CCCCCCCCCCCCCC(=O)Nc1ccc(CP(=O)(O)O)cc1		0.367 µM
CCCCCCCCCCCCCCCCCC(=O)OC[C@@H](O)CC(Br)P(=O)(O)O (stereo not given in full)		40.1 µM
